Usually IC50 stands for the concentration that gives 50% inhibition. What is called EC50 is the concentration that produces a half-maximal response.

Starred links: 1 amine or outer side, 2 acyl side, 3 side chain; linkers in the order of their positions; H or OH if unused. Non-standard residues stand in square brackets, D forms with d. Residues, ends and D or L forms follow the SMILES beside them. Groups on a side chain read outwards from the residue. *: point of attachment. C18 diacid = O=C(O)CCCCCCCCCCCCCCCCC(=O)*; γGlu = O=C(O)[C@H](CCC(=O)[*:2])N[*:1]; AEEA = NCCOCCOCC(=O)O; Aib = CC(C)(N)C(=O)O

The record followed here is patent publication US10570184B2, “GLP-1/glucagon receptor co-agonists for medical use” (Novo Nordisk A/S, priority 2014, dated 2020).

Assay [1] addresses T1, human GLP-1 receptor (Homo sapiens, UniProt P43220).
T1 construct: expressed in transfected cells; host or cells: membranes of BHK cells (parent BHKTS13), clone FCW467-12A
The assay can be described thus: Assay (II)(a) GLP-1 receptor binding, 125I-GLP-1 displacement SPA on BHK membranes. To be noted: without presence of serum albumin; read-out: GLP-1R IC50 (nM) [Assay (II)(a)]. Here is the method: The GLP-1 receptor (GLP-1R) binding is a measure of affinity of a compound for the human GLP-1 receptor. The receptor binding of each compound to the human GLP-1 receptor was measured in a displacement binding assay. In this type of assay a labelled ligand (in this case 125I-GLP-1) is bound to the receptor. Each derivative was added in a series of concentrations to isolated membranes containing the human GLP-1 receptor and displacement of the labelled ligand was monitored. The receptor binding was reported as the concentration at which half of the labelled ligand was displaced from the receptor, the IC50 value. In order to test the binding of the derivatives to albumin, the assay may be performed in a very low concentration of serum albumin (max. 0.001% final assay concentration) as well as in the presence of a (considerably) higher concentration of serum albumin (2.0% final assay concentration). An increase of the IC50 value, in the presence of serum albumin indicates an affinity to serum albumin and represents a method to predict a protracted pharmacokinetic profile of the test substance in animal models. The following chemicals were used in the assay: DMEM w/o phenol red (Gibco 11880-028), Pen/strep (Invitrogen 15140-122), G418 (Invitrogen 10131-027), 1 M Hepes (Gibco 15630), EDTA (Invitrogen 15575-038), PBS (Invitrogen 14190-094), fetal calf serum (Invitrogen 16140-071), EGTA, MgCl2 (Merck 1.05832.1000), Tween 20 (Amresco 0850C335), SPA particles (wheat germ agglutinin (WGA) SPA beads, Perkin Elmer RPNQ0001), [125I]-GLP-1]-(7-36)NH2 (produced in-house), OptiPlate™-96 (Perkin Elmer). Buffer 1 consisted of 20 mM Na-HEPES plus 10 mM EDTA and pH was adjusted to 7.4. Buffer 2 consisted of 20 mM Na-HEPES plus 0.1 mM EDTA and pH was adjusted to 7.4. Assay buffer consisted of 50 mM HEPES supplemented with 5 mM EGTA, 5 mM MgCl2, 0.005% Tween 20 and pH was adjusted to 7.4. The cells used in this assay (clone FCW467-12A) were BHK cells with BHKTS13 as a parent cell line. The cells express the human GLP-1 receptor. The cells were grown at 5% CO2 in DMEM, 10% fetal calf serum, 1% Pen/Strep (Penicillin/Streptomycin) and 1.0 mg/ml of the selection marker G418. To make a membrane preparation the cells were grown to approximately 80% confluence. The cells were washed twice in phosphate-buffered saline and harvested. The cells were pelleted using a brief centrifugation and the cell pellet was kept on ice. The cell pellet was homogenised with ULTRA-THURRAX dispersing instrument for 20-30 seconds in a suitable amount of buffer 1 (e.g., 10 ml). The homogenate was centrifuged for 15 minutes. The pellet was re-suspended (homogenised) in 10 ml buffer 2 and centrifuged. This step was repeated once more. The resulting pellet was re-suspended in buffer 2 and the protein concentration was determined. The membranes were aliquoted and stored at minus 80° C. • 1. For the receptor binding assay, 50 μl of the assay buffer was added to each well of an assay plate. • 2. Test compounds were serially diluted to give the following concentrations: 8×10EE-7 M, 8×10EE-8 M, 8×10EE-9 M, 8×10EE-10 M, 8×10EE-11 M, 8×10EE-12 M and 8×10EE-13 M. Twenty-five μl were added to appropriate wells in the assay plate. • 3. Cell membrane aliquots were thawed and diluted to their working concentration. Fifty μl were added to each well in the assay plate. • 4. WGA SPA beads were suspended in assay buffer at 20 mg/ml. The suspension was diluted to 10 mg/ml in assay buffer just prior to addition to the assay plate. Fifty μl were added to each well in the assay plate. • 5. The incubation was started by adding 25 μl of […] solution of [125I]-GLP-1]-(7-36)NH2 to each well of the assay plate. A 25 μl aliquot was reserved for measuring total counts/well. • 6. The assay plate was incubated for 2 h at 30° C. • 7. The assay plate was centrifuged for 10 min. • 8. The assay plate was read in a Perkin Elmer TopCount NXT instrument. […]

Assay [2] deals with T1, human GLP-1 receptor. The assay can be described thus: Assay (I)(a) GLP-1 receptor activation, CRE luciferase reporter gene assay in BHK cells. To be noted: without presence of serum albumin; read-out: GLP-1R EC50 (pM) [Assay (I)(a)]. The class given is cell-based. Here is the method:
The purpose of this example was to test the activity or potency, of the glucagon derivatives of the invention, in vitro. The in vitro potency is the measure of human GLP-1 receptor (GLP-1R) or glucagon receptor (glucagonR) activation, respectively, in a whole cell assay. In vitro potency was determined by measuring the response of human GLP-1 or glucagon receptor, respectively, in a reporter gene assay. The assay was performed in a stably transfected BHK cell line that expresses either the human GLP-1 receptor or the human glucagon receptor and contains the DNA for the cAMP response element (CRE) coupled to a promoter and the gene for firefly luciferase (CRE luciferase). […] When assay incubation was completed, the luciferase substrate (luciferin) was added and the enzyme converted luciferin to oxyluciferin and produces bioluminescence. The luminescence was measured as the readout for the assay. The cells used in this assay (clone FCW467-12A/KZ10-1) were BHK cells with BHKTS13 as a parent cell line. The cells were derived from a clone (FCW467-12A) that expresses the human GLP-1 receptor and were established by further transfection with CRE luciferase to obtain the current clone. The cells were cultured at 5% CO2 in DMEM medium with 10% FBS, 1×GlutaMAX, 1 mg/ml G418, 240 nM MTX (methotrexate) and 1% pen/strep (penicillin/streptomycin). They were aliquoted and stored in liquid nitrogen. Before each assay, an aliquot was taken up and washed three times in PBS before being suspended at the desired concentration in assay medium. For 96-well plates the suspension was made to give a final concentration of 5×10EE3 cells/well. The following chemicals were used in the assay: Pluronic F-68 (10%) (Gibco 2404), ovalbumin (Sigma A5503), DMEM w/o phenol red (Gibco 11880-028), 1 M Hepes (Gibco 15630), Glutamax 100× (Gibco 35050) and steadylite plus (PerkinElmer 6016757). Assay Medium consisted of DMEM w/o phenol red, 10 mM Hepes, 1× GlutaMAX, 2% Ovalbumin and 0.2% Pluronic F-68. Cell stocks were thawed in a 37° C. water bath. Cells were washed three times in PBS. The cells were counted and adjusted to 5×10EE3 cells/50 μl (1×10EE5 cells/ml) in Assay Medium. A 50 μl aliquot of cells was transferred to each well in the assay plate. Stocks of the test compounds and reference compounds were diluted to a concentration of […] in Assay Medium. Compounds were diluted 10-fold to give the following concentrations: 2×10EE-6 M, 2×10EE-7 M, 2×10EE-8 M; 2×10EE-9 M, 2×10EE-10 M, 2×10EE-11 M, 2×10EE-12 M and 2×10EE-13 M. For each compound a blank assay medium control was also included. A 50 μl aliquot of compound or blank was transferred from the dilution plate to the assay plate. Compounds were tested at the following final concentrations: 1×10EE-6 M, 1×10EE-7 M, 1×10EE-8 M; 1×10EE-9 M, 1×10EE-10 M, 1×10EE-11 M and 1×10EE-12 M and 1×10EE-13 M. The assay plate was incubated for 3 h in a 5% CO2 incubator at 37° C. The assay plate was removed from the incubator and allowed to stand at room temperature for 15 min. A 100 μl aliquot of steadylite plus reagent was added to each well of the assay plate (reagent is light sensitive). Each assay plate was covered with aluminum foil to protect it from light and shaken for 30 min at room temperature. Each assay plate was read in a Perkin Elmer TopCount NXT instrument. The data from the TopCount instrument was transferred to GraphPad Prism software. The software performed a non-linear regression (log(agonist) vs response-Variable slope (four parameter)). EC50 values were calculated by the software and reported in pM.

T1 sequence (P43220 24-463): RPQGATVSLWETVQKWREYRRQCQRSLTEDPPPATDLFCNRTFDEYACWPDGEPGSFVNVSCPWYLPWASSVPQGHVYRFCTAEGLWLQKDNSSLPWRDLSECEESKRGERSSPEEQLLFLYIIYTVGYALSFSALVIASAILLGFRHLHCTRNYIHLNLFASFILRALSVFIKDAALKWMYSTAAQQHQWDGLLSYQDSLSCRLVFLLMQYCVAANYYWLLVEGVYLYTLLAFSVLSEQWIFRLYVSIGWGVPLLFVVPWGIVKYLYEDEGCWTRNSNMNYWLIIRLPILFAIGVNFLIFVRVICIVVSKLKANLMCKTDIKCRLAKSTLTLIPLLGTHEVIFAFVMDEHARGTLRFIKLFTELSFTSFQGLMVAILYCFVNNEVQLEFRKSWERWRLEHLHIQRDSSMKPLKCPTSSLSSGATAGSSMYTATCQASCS

With `CC[C@H](C)[C@H](NC(=O)[C@H](CC(C)C)NC(=O)[C@H](Cc1c[nH]c2ccccc12)NC(=O)[C@H](CCC(N)=O)NC(=O)[C@@H](NC(=O)[C@H](Cc1ccccc1)NC(=O)[C@H](CC(=O)O)NC(=O)[C@H](CCC(N)=O)NC(=O)[C@H](C)NC(=O)[C@H](CCCNC(=N)N)NC(=O)[C@H](CCCNC(=N)N)NC(=O)[C@H](C)NC(=O)[C@H](CC(=O)O)NC(=O)[C@H](CC(C)C)NC(=O)[C@H](Cc1ccc(O)cc1)NC(=O)[C@H](CCCCN)NC(=O)[C@H](CO)NC(=O)[C@@H](NC(=O)[C@H](CC(=O)O)NC(=O)[C@H](CO)NC(=O)[C@@H](NC(=O)[C@H](Cc1ccccc1)NC(=O)[C@@H](NC(=O)CNC(=O)[C@H](CCC(N)=O)NC(=O)C(C)(C)NC(=O)[C@@H](N)Cc1c[nH]cn1)[C@@H](C)O)[C@@H](C)O)C(C)C)C(C)C)C(=O)N[C@@H](CCCCNC(=O)CC[C@H](NC(=O)COCCOCCNC(=O)COCCOCCNC(=O)CC[C@H](NC(=O)CC[C@H](NC(=O)CCCCCCCCCCCCCCCCC(=O)O)C(=O)O)C(=O)O)C(=O)O)C(=O)N[C@H](C(N)=O)[C@@H](C)O` [Chem. 39, N^ε28-[(4S)-4-carboxy-4-[[2-[2-[2-[[2-[2-[2-[[(4S)-4-carboxy-4-[[(4S)-4-carboxy-4-(17-carboxyheptadecanoylamino)butanoyl]amino]butanoyl]amino]ethoxy]ethoxy]acetyl]amino]ethoxy]ethoxy]acetyl]amino]butanoyl]-[Aib2,Val10,Ala16,Ile27,Lys28]-Glucagon amide] (H-H[Aib]QGTFTSDVSKYLDARRAQDFVQWLIK([γGlu-AEEA-AEEA-γGlu-γGlu-C18 diacid])T-NH2; N-terminus assumed), the IC50 in assay [1] is 0.1 nM.
On to `CC[C@H](C)[C@H](NC(=O)[C@H](CC(C)C)NC(=O)[C@H](Cc1c[nH]c2ccccc12)NC(=O)[C@H](CCC(N)=O)NC(=O)[C@@H](NC(=O)[C@H](Cc1ccccc1)NC(=O)[C@H](CC(=O)O)NC(=O)[C@H](CCC(N)=O)NC(=O)[C@H](C)NC(=O)[C@H](CCCNC(=N)N)NC(=O)[C@H](CCCNC(=N)N)NC(=O)[C@@H](NC(=O)[C@H](CC(=O)O)NC(=O)[C@H](CC(C)C)NC(=O)[C@H](Cc1ccc(O)cc1)NC(=O)[C@H](CCCCN)NC(=O)[C@H](CO)NC(=O)[C@H](CC(C)C)NC(=O)[C@H](CC(=O)O)NC(=O)[C@H](CO)NC(=O)[C@@H](NC(=O)[C@H](Cc1ccccc1)NC(=O)[C@@H](NC(=O)CNC(=O)[C@H](CCC(N)=O)NC(=O)C(C)(C)NC(=O)[C@@H](N)Cc1c[nH]cn1)[C@@H](C)O)[C@@H](C)O)C(C)C)C(C)C)C(=O)N[C@@H](CCCCNC(=O)CC[C@H](NC(=O)COCCOCCNC(=O)COCCOCCNC(=O)CC[C@H](NC(=O)CC[C@H](NC(=O)CCCCCCCCCCCCCCCCC(=O)O)C(=O)O)C(=O)O)C(=O)O)C(=O)N[C@H](C(N)=O)[C@@H](C)O` [Chem. 40, N^ε28-[(4S)-4-carboxy-4-[[2-[2-[2-[[2-[2-[2-[[(4S)-4-carboxy-4-[[(4S)-4-carboxy-4-(17-carboxyheptadecanoylamino)butanoyl]amino]butanoyl]amino]ethoxy]ethoxy]acetyl]amino]ethoxy]ethoxy]acetyl]amino]butanoyl]-[Aib2,Leu10,Val16,Ile27,Lys28]-Glucagon amide] (H-H[Aib]QGTFTSDLSKYLDVRRAQDFVQWLIK([γGlu-AEEA-AEEA-γGlu-γGlu-C18 diacid])T-NH2; N-terminus assumed), for which, in assay [2], the EC50 is 3 pM.
